In patent publication US8217085B2 (priority 2009, dated 2012):
Values joined by “and” are separate entries in the source; they are usually repeats but may differ in a detail not shown here. Identical values can stand only once. Like-named read-outs stand apart in the source and are kept apart here.

System: ATCC strain 43300 Staphylococcus aureus
[1] = 5% MSM, 12 μg/ml oxacillin, 24 hours
[2] = 5% MSM, 30 μg/ml oxacillin, 24 hours
[3] = 5% MSM, 60 μg/ml oxacillin, 24 hours
[4] = 6% MSM, 12 μg/ml oxacillin, 24 hours
[5] = 6% MSM, 30 μg/ml oxacillin, 24 hours
[6] = 6% MSM, 60 μg/ml oxacillin, 24 hours
[7] = 7% MSM, 12 μg/ml oxacillin, 24 hours
[8] = 7% MSM, 30 μg/ml oxacillin, 24 hours
[9] = 7% MSM, 60 μg/ml oxacillin, 24 hours
[10] = 8% MSM, 12 μg/ml oxacillin, 24 hours
[11] = 8% MSM, 30 μg/ml oxacillin, 24 hours
[12] = 8% MSM, 60 μg/ml oxacillin, 24 hours
[13] = 9% MSM, 12 μg/ml oxacillin, 24 hours
[14] = 9% MSM, 30 μg/ml oxacillin, 24 hours
[15] = 9% MSM, 60 μg/ml oxacillin, 24 hours
[16] = 10% MSM, 12 μg/ml oxacillin, 24 hours
[17] = 10% MSM, 12 μg/ml oxacillin, 48 hours
[18] = 10% MSM, 30 μg/ml oxacillin, 24 hours
[19] = 10% MSM, 60 μg/ml oxacillin, 24 hours
[20] = 11% MSM, 12 μg/ml oxacillin, 24 hours
[21] = 11% MSM, 12 μg/ml oxacillin, 48 hours
[22] = 11% MSM, 30 μg/ml oxacillin, 24 hours
[23] = 11% MSM, 60 μg/ml oxacillin, 24 hours

CS(C)(=O)=O [MSM, methylsulfonylmethane]
Average Log [1]: 3.91 Log
survival [1]: 8.4 × 10^3 cfu/ml and 8.0 × 10^3 cfu/ml
Average Log (5% MSM, 12 μg/ml oxacillin, 48 hours): 3.6 Log
Average Log (5% MSM, 12 μg/ml oxacillin, 72 hours): 5.5 Log
Average Log [2]: 2.51 Log
survival [2]: 3.1 × 10^2 cfu/ml and 3.3 × 10^2 cfu/ml
Average Log (5% MSM, 30 μg/ml oxacillin, 48 hours): 3.8 Log
Average Log (5% MSM, 30 μg/ml oxacillin, 72 hours): 5.5 Log
Average Log [3]: 2.54 Log
survival [3]: 3.5 × 10^2 cfu/ml and 3.3 × 10^2 cfu/ml and 3.6 × 10^2 cfu/ml
Average Log (5% MSM, 60 μg/ml oxacillin, 48 hours): 3.5 Log
growth (5%, 10% and 16% MSM, no antibiotic, 24 hours): turbid growth
Average Log [4]: 3.92 Log
survival [4]: 8.6 × 10^3 cfu/ml and 8.5 × 10^3 cfu/ml and 8.0 × 10^3 cfu/ml
Average Log (6% MSM, 12 μg/ml oxacillin, 48 hours): 3.2 Log
Average Log (6% MSM, 12 μg/ml oxacillin, 72 hours): 5.5 Log
Average Log [5]: 2.46 Log
survival [5]: 2.9 × 10^2 cfu/ml
Average Log (6% MSM, 30 μg/ml oxacillin, 48 hours): 3.7 Log
Average Log (6% MSM, 30 μg/ml oxacillin, 72 hours): 5.5 Log
Average Log [6]: 2.38 Log
survival [6]: 2.4 × 10^2 cfu/ml
Average Log (6% MSM, 60 μg/ml oxacillin, 48 hours): 1.8 Log
Average Log [7]: 3.91 Log
survival [7]: 8.2 × 10^3 cfu/ml and 8.5 × 10^3 cfu/ml and 8.3 × 10^3 cfu/ml
Average Log (7% MSM, 12 μg/ml oxacillin, 48 hours): 3.9 Log
Average Log (7% MSM, 12 μg/ml oxacillin, 72 hours): 5.5 Log
Average Log [8]: 2.98 Log
survival [8]: 9.7 × 10^2 cfu/ml and 9.6 × 10^2 cfu/ml and 9.2 × 10^2 cfu/ml
Average Log (7% MSM, 30 μg/ml oxacillin, 48 hours): 2.3 Log
Average Log (7% MSM, 30 μg/ml oxacillin, 72 hours): 4.5 Log
Average Log [9]: 2.34 Log
survival [9]: 2.1 × 10^2 cfu/ml and 2.3 × 10^2 cfu/ml
Average Log (7% MSM, 60 μg/ml oxacillin, 48 hours): 4.0 Log
Average Log [10]: 3.82 Log
survival [10]: 6.6 × 10^3 cfu/ml and 6.9 × 10^3 cfu/ml
Average Log (8% MSM, 12 μg/ml oxacillin, 48 hours): 3.7 Log
Average Log (8% MSM, 12 μg/ml oxacillin, 72 hours): 5.5 Log
Average Log [11]: 3.07 Log
survival [11]: 1.18 × 10^3 cfu/ml and 1.16 × 10^3 cfu/ml
Average Log (8% MSM, 30 μg/ml oxacillin, 48 hours): 3.1 Log
Average Log (8% MSM, 30 μg/ml oxacillin, 72 hours): 5.5 Log
Average Log [12]: 2.67 Log
survival [12]: 4.6 × 10^2 cfu/ml and 5.0 × 10^2 cfu/ml
Average Log (8% MSM, 60 μg/ml oxacillin, 48 hours): 2.8 Log
Average Log [13]: 3.72 Log
survival [13]: 5.6 × 10^3 cfu/ml and 5.2 × 10^3 cfu/ml and 5.0 × 10^3 cfu/ml
Average Log (9% MSM, 12 μg/ml oxacillin, 48 hours): 3.4 Log
Average Log (9% MSM, 12 μg/ml oxacillin, 72 hours): 4.5 Log
Average Log [14]: 3.01 Log
survival [14]: 1.06 × 10^3 cfu/ml and 1.05 × 10^3 cfu/ml and 1.02 × 10^3 cfu/ml
Average Log (9% MSM, 30 μg/ml oxacillin, 48 hours): 2.4 Log
Average Log (9% MSM, 30 μg/ml oxacillin, 72 hours): 2.9 Log
Average Log [15]: 2.50 Log
survival [15]: 3.2 × 10^2 cfu/ml
Average Log (9% MSM, 60 μg/ml oxacillin, 48 hours): 2.2 Log
Average Log [16]: 3.76 Log
survival [16]: 5.8 × 10^3 cfu/ml and 5.6 × 10^3 cfu/ml and 6.0 × 10^3 cfu/ml
Average Log [17]: 2.7 Log
survival [17]: 5.6 × 10^2 cfu/ml
Average Log (10% MSM, 12 μg/ml oxacillin, 72 hours): 4.0 Log
Average Log [18]: 3.32 Log
survival [18]: 2.2 × 10^3 cfu/ml and 2.0 × 10^3 cfu/ml
Average Log (10% MSM, 30 μg/ml oxacillin, 48 hours): 2.6 Log
Average Log (10% MSM, 30 μg/ml oxacillin, 72 hours): 3.9 Log
Average Log [19]: 2.63 Log
survival [19]: 4.2 × 10^2 cfu/ml and 4.4 × 10^2 cfu/ml
Average Log (10% MSM, 60 μg/ml oxacillin, 48 hours): 2.2 Log
Average Log [20]: 3.91 Log
survival [20]: 8.2 × 10^3 cfu/ml and 8.5 × 10^3 cfu/ml and 8.0 × 10^3 cfu/ml
Average Log [21]: 2.8 Log
survival [21]: 6.4 × 10^2 cfu/ml and 5.8 × 10^2 cfu/ml and 6.5 × 10^2 cfu/ml
Average Log (11% MSM, 12 μg/ml oxacillin, 72 hours): 3.6 Log
Average Log [22]: 3.57 Log
survival [22]: 3.9 × 10^3 cfu/ml and 3.7 × 10^3 cfu/ml
Average Log (11% MSM, 30 μg/ml oxacillin, 48 hours): 2.4 Log
Average Log (11% MSM, 30 μg/ml oxacillin, 72 hours): 3.2 Log
Average Log [23]: 2.83 Log
survival [23]: 6.7 × 10^2 cfu/ml and 6.9 × 10^2 cfu/ml
Average Log (11% MSM, 60 μg/ml oxacillin, 48 hours): 2.1 Log
